Source: patent publication US11311576B2, “Methods of use for CAR T cells” (Seattle Children's Hospital, priority 2018, dated 2022)

Experiments:
HOS-FRα tumor = experiment: CRS toxicity and sodium fluorescein rescue in HOS-FRα tumor-bearing mice; type: in vivo; settings: ~2.5 million CD8 and ~33 million CD4 E2 CAR-T cells; days 4 and 11, after EC17 500 and 100 nmol/kg on days 3 and 10
Method: All animal care and use were performed according to NIH guidelines and in compliance with protocols approved by the Purdue University Animal Use and Care Committee. Female 4 to 5-week-old NOD/SCID gamma (NSG™) mice (stock number: 005557) were purchased from The Jackson Laboratory (Bar Harbor, Me.). Unless specifically indicated, all animals were maintained on a FA-deficient diet (TestDiet, St. Louis, Mo.) upon arrival and throughout the study. To establish subcutaneous xenografts, MDA-MB-231 and HOS-FRα were implanted in the right flank region at 2.5×10^6 and 1×10^6 cells per animal, respectively. For intravenous xenografts, THP1-FRb cells were inoculated at 5×10^6 cells per animal. Subcutaneous tumors were measured 2-3 times per week with a caliper and calculated using the ellipsoidal formula […]. […] All animal doses (CAR-T cells, EC17, sodium fluorescein) were given intravenously.
Depending on the CAR-T cell dose and how EC17 is administered, tumor-bearing mice receiving FITC-specific CAR-T cells can experience severe CRS and varying degrees of body weight loss. […] On the days immediately following each EC17 dose, animals were scored and rescue agents such as sodium fluorescein, folic acid and leucovorin were used to mitigate CRS toxicity. […]

MDA-MB-231 tumor = experiment: Kinetics of CAR-T cell expansion and tumor uptake in MDA-MB-231 tumor bearing mice; type: in vivo, NSG mice
Method: When the tumor sizes averaged at ˜350±60 mm^3 on day 2, up to […] of EC17 at 500 nmol/kg were given on days 2, 9, 16, 23, and 30. For ex-vivo analysis, 3 animals were taken before the next EC17 dose on days 9, 16, 23, and 30 for a total of 4 collections. For comparison, the same EC17 dose was given to 3 CAR-T mice that had ˜4.4× larger tumor sizes on day 2 (˜1555±79 mm3). For each collection, fresh blood and tumor samples (if available) were analyzed for the presence of human CD3e+ EGFRt+ CAR-T cells by flow cytometry.
For CAR-T cell analysis in the circulation, plasma was removed from a predetermined volume of whole blood collected into tubes containing ethylenediaminetetraacetic acid anticoagulant. […] A minimum of 20,000 propidium iodide negative live cell events were collected on the Gallios flow cytometer and analyzed with the Kaluza software, version 2.1 (Beckman Coulter, Brea, Calif.). CAR-positive T cells were identified in mouse blood as human CD3e+ EGFRt+ events and absolute numbers per volume of blood were calculated using equal numbers of CountBright™ beads (Invitrogen, Carlsbad, Calif.) added to each sample. The number of tumor-infiltrating CD3ε+ EGFRt+ CAR-T cells was expressed as % total viable tumor cells analyzed.

MDA-MB-231 tumors = experiment: Dietary folate effect on antitumor activity and CRS toxicity, MDA-MB-231 tumors; type: in vivo, NSG mice
Method: To study the effect of high dietary folate (FIG. 63A, FIG. 63B, FIG. 63C, FIG. 63D), two sets of NSG mice were placed on either a FA-replete diet (4 mg/kg, Envigo, Indianapolis, Ind.) or a FA-deficient diet (TestDiet, St. Louis, Mo.) upon arrival. On day 0, both sets of the mice received ˜10 million of the same “clinical facsimile” CAR-T cells followed by no EC17 or EC17 SIW at 500 nmol/kg starting on day 3. On the first day of EC17 administration, MDA-MB-231 tumors size averaged around ˜549±184 mm^3 (280-918 mm3) in FA-replete mice, and ˜559±165 mm^3 (356-961 mm^3) in FA-deficient mice.
Previously, it was shown that administration of FA or a FA ligand helped reduce the severity of CRS in MDA-MB-231 tumor-bearing mice. To test the long-term effect of dietary folate, mice were maintained on defined diets for ˜73 days and used when their tumors reached ˜549±184 mm3 (280-918 mm^3) in FA-replete mice, and ˜559±165 mm^3 (356-961 mm^3) in FA-deficient mice (FIG. 63A, FIG. 63B, FIG. 63C, FIG. 63D).

[1] = FA-deficient diet, each subsequent EC17 dose
[2] = FA-replete mice, CAR-T cells plus EC17

NC1=NC2N=CC(CNc3ccc(C(=O)N[C@@H](CCC(=O)NCCNC(=S)Nc4ccc(-c5c6ccc(=O)cc-6oc6cc(O)ccc56)c(C(=O)O)c4)C(=O)O)cc3)=NC2C(=O)N1 (some centres unmarked) [EC17, FA-(g)-ethylenediamine-FITC]
CRS grade (HOS-FRα tumor): 1-2 | body weight loss (MDA-MB-231 tumor; ~4.8 million E2-CAR-T cells, after EC17 administration, especially third dose): mild body weight loss | tumor response (MDA-MB-231 tumor; ~4.8 million EGFRt-sorted E2-CAR-T cells, weekly EC17 500 nmol/kg): started to respond after the second EC17 dose | CRS grade (MDA-MB-231 tumors; [1]): 2-3 | body weight loss (MDA-MB-231 tumors; [1]): ≤ 11.4% | cures (MDA-MB-231 tumors; FA-deficient mice, CAR-T cells plus EC17): 5/5 | symptoms of CRS (MDA-MB-231 tumors; FA-replete diet, eight weekly EC17 doses of 500 nmol/kg): did not show symptoms of CRS | complete responses (MDA-MB-231 tumors; [2]): 2/5 | cures (MDA-MB-231 tumors; [2]): 2/5 | partial response (MDA-MB-231 tumors; [2]): 1/5 | CRS or body weight loss after first full dose (MDA-MB-231 tumors; ~10 million clinical facsimile E2-CAR-T cells, EC17 500 nmol/kg, either diet): did not cause any CRS or body weight loss
